Assay results from ChEMBL document CHEMBL5465560, “Selectivity Literature for EUbOPEN Chemogenomic Library” (2024).

Legend:
[1] = target: Tyrosine-protein kinase receptor Tie-1 (Homo sapiens) (UniProt P35590); conditions: at 10 µM
[2] = target: STE20-like serine/threonine-protein kinase (Homo sapiens, UniProt Q9H2G2); assay: Selectivity interaction (KinomeScan (DiscoverX)) EUB0000695a SLK; conditions: at 100 nM
[3] = target: T1, N-lysine methyltransferase KMT5A (Homo sapiens) (UniProt Q9NQR1); assay: Selectivity interaction (Methyltransferase screen (radiometric assays, panel of 8 PRMTs, 21 protein lysine methyltransferases, 3 DNA methyltransferases, and one RNA methyltransferase)) EUB0000272b SETD8
T1 sequence (whole entry): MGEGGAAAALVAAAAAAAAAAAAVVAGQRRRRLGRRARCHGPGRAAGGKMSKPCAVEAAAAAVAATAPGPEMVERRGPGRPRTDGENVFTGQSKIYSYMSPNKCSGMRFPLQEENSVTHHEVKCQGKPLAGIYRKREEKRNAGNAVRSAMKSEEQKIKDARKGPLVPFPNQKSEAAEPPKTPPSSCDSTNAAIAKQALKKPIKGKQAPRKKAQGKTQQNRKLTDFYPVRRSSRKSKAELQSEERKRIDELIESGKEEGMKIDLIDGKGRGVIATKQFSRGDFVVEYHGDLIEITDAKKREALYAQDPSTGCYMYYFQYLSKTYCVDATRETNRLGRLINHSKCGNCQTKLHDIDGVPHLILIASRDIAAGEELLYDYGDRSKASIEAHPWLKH

[4] = target: Tyrosine-protein kinase Fes/Fps (Homo sapiens) (UniProt P07332); assay: Selectivity interaction (KinomeScan (DiscoverX)) EUB0001049a FES; conditions: at 1 µM
Chain of Tyrosine-protein kinase Fes/Fps (Homo sapiens) (P07332 whole entry): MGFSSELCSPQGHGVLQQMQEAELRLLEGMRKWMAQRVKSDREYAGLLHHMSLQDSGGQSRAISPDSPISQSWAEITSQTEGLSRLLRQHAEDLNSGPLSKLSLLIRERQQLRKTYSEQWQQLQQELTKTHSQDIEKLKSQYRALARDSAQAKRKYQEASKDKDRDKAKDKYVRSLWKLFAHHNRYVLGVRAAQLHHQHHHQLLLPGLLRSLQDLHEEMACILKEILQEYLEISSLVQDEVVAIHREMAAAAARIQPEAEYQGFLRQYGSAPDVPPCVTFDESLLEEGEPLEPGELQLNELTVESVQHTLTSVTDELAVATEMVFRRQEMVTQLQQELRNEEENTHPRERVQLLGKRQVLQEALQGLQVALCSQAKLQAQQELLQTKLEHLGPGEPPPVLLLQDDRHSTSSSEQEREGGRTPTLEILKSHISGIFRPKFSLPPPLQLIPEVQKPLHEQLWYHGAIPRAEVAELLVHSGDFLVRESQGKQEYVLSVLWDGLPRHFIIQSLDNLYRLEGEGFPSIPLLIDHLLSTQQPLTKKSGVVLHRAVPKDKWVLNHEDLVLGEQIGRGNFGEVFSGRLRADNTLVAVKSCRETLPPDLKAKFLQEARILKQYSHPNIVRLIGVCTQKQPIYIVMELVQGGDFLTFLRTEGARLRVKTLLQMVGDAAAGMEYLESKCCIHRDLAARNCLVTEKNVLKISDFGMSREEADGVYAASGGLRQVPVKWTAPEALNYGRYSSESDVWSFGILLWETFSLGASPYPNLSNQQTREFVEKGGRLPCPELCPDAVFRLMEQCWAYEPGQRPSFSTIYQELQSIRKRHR

[5] = target: BMP-2-inducible protein kinase (Homo sapiens) (UniProt Q9NSY1); assay: Selectivity interaction (KinomeScan (DiscoverX)) EUB0001049a BMP2K; conditions: at 1 µM
[6] = target: cAMP-dependent protein kinase catalytic subunit alpha (Homo sapiens, UniProt P17612); assay: Selectivity interaction (KinomeScan (DiscoverX)) EUB0001619a PRKACA; conditions: at 1 µM
[7] = system: Phosphatidylinositol 4,5-bisphosphate 3-kinase catalytic subunit alpha isoform (Homo sapiens), P42336 [E542K]; conditions: at 10 µM
Chain of Phosphatidylinositol 4,5-bisphosphate 3-kinase catalytic subunit alpha isoform (Homo sapiens), P42336 [E542K] (P42336 whole entry E542K, canonical isoform): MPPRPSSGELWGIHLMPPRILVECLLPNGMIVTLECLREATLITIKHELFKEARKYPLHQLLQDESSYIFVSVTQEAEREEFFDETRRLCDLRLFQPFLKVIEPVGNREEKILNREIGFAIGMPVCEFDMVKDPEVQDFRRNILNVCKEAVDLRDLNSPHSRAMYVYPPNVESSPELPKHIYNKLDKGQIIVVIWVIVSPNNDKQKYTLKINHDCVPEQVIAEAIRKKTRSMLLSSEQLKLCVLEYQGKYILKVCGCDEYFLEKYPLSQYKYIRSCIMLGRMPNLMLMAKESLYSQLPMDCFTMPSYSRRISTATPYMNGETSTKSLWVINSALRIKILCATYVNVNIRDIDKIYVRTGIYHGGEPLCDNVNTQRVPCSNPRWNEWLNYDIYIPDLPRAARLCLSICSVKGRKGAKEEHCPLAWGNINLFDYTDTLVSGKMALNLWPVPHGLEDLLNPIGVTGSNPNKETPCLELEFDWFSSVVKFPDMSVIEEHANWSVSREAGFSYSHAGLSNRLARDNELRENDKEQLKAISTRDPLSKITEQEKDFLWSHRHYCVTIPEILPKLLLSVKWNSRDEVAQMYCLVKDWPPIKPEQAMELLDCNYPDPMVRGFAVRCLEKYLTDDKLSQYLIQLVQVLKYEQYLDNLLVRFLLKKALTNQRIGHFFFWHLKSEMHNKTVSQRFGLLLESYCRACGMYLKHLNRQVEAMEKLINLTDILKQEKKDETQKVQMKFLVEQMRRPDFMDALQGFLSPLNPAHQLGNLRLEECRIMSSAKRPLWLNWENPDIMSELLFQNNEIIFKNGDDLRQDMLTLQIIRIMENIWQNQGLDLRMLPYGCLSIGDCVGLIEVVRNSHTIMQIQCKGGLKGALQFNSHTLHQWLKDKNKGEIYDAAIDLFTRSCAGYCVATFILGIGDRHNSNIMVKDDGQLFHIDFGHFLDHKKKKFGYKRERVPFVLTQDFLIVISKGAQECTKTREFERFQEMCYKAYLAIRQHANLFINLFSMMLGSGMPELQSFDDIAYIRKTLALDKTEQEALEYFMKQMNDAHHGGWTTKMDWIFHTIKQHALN

[8] = target: T2, Mitogen-activated protein kinase kinase kinase 3 (Homo sapiens) (UniProt Q99759); assay: Selectivity interaction (ActivX KiNativ screen (kinase selectivity in THP-1 cell lysates)) EUB0000639a MAP3K3; format: subcellular; conditions: lysate, at 5 µM
T2 sequence (whole entry): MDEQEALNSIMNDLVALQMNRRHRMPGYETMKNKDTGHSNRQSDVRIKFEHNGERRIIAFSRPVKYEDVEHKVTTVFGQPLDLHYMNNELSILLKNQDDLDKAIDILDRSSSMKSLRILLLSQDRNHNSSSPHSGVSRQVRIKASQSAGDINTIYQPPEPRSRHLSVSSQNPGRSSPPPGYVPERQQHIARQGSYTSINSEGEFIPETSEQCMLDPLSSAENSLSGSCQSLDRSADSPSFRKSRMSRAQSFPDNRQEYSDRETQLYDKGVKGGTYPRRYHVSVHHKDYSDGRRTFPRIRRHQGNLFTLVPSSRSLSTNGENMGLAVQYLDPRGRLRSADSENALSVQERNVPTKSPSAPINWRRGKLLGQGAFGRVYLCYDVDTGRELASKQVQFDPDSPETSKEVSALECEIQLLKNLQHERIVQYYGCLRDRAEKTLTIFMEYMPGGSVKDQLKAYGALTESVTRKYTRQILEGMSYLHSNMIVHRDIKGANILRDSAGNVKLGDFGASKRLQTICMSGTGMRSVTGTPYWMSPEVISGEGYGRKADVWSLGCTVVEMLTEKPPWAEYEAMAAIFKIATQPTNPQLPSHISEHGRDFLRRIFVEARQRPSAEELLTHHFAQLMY

[9] = target: T3, Interleukin-1 receptor-associated kinase 3 (Homo sapiens) (UniProt Q9Y616); assay: Selectivity interaction (ActivX KiNativ screen (kinase selectivity in THP-1 cell lysates)) EUB0000639a IRAK3; format: subcellular; conditions: lysate, at 5 µM
T3 sequence (whole entry): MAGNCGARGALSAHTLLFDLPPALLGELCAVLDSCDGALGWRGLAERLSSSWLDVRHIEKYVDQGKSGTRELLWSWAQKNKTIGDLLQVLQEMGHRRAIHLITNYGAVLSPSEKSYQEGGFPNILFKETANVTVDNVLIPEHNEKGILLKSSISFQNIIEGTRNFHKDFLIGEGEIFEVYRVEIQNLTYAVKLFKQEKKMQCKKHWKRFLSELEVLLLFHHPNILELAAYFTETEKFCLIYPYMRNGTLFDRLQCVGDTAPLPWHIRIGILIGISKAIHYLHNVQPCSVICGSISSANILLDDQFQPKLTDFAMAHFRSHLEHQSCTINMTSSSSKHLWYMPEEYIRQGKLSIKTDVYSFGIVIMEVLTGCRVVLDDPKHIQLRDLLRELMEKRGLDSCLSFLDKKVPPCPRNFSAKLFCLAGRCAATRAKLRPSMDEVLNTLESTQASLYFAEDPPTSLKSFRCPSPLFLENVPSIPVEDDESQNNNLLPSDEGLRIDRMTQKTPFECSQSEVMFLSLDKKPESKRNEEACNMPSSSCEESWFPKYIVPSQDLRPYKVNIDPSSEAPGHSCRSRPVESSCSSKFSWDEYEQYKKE

[10] = target: Vascular endothelial growth factor receptor 3 (Homo sapiens, UniProt P35916); assay: Selectivity interaction (KinomeScan (DiscoverX)) EUB0000092b FLT4; conditions: at 10 µM
[11] = target: Activated CDC42 kinase 1 (Homo sapiens, UniProt Q07912); assay: Selectivity interaction (Ambit KINOMEscan and KiNATiv profiling in Jurkat cells) EUB0000090b TNK2; format: cell-based; conditions: at 1 µM
Chain of Activated CDC42 kinase 1 (Q07912 whole entry, looked up): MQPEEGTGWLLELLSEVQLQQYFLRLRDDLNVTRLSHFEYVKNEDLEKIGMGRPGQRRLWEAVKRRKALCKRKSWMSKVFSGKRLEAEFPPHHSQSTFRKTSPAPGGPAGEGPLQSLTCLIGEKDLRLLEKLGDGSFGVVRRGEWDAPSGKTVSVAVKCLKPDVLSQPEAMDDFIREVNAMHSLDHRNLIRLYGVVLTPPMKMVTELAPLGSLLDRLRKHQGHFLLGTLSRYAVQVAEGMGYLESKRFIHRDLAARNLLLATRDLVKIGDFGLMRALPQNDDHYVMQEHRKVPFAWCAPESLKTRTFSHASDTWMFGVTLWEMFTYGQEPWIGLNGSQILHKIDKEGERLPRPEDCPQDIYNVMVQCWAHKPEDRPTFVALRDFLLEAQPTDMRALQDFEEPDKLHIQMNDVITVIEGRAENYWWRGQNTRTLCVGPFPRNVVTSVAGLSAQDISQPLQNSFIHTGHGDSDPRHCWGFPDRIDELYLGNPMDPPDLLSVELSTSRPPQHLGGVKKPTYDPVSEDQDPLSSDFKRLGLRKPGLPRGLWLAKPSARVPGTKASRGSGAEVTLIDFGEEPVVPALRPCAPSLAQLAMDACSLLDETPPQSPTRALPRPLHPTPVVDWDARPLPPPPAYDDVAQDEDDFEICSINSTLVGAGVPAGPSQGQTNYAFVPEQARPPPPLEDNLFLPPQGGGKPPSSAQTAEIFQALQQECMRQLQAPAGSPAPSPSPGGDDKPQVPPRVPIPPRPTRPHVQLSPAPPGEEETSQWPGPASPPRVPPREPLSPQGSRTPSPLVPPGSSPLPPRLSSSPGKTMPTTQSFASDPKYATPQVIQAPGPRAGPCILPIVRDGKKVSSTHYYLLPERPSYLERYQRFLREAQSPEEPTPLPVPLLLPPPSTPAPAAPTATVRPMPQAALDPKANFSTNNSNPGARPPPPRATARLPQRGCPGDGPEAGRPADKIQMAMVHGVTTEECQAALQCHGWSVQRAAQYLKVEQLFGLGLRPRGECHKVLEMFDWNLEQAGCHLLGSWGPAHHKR

Chain of Tyrosine-protein kinase receptor Tie-1 (Homo sapiens) (P35590 whole entry): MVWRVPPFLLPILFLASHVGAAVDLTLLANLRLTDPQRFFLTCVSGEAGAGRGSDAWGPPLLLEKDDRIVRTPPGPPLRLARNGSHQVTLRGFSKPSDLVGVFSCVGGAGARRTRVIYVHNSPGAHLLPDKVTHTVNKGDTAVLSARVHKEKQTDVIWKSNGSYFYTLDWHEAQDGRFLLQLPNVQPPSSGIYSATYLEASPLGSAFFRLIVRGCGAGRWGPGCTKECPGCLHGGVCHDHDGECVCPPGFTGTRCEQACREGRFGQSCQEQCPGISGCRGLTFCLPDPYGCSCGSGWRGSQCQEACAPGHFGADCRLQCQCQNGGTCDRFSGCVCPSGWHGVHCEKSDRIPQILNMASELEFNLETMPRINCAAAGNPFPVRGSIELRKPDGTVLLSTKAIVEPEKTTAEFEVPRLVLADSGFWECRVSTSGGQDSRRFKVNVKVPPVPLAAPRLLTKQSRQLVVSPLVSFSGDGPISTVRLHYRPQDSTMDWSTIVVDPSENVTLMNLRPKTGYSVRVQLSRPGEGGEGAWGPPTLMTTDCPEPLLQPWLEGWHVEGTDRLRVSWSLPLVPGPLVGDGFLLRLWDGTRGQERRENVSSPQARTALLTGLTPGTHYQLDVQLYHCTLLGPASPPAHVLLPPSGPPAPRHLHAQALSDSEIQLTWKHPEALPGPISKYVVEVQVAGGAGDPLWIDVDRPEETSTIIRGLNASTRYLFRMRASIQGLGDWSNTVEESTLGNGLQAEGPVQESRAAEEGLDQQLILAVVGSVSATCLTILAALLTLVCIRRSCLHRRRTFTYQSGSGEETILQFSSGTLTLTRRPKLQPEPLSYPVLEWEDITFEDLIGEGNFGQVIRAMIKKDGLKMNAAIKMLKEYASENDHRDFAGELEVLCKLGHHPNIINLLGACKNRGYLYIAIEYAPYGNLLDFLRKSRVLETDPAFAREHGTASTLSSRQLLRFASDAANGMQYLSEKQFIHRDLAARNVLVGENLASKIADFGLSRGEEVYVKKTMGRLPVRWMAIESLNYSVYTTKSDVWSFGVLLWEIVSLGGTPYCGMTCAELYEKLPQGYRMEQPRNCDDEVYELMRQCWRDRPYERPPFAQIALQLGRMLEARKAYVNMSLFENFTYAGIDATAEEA

## COCC(=O)NC/C=C/c1ccc2ncnc(Nc3ccc(Oc4ccc(C)nc4)c(C)c3)c2c1 [CP-724714]
[1]
  % of control: 100%

## Cc1cc(F)c(C(=O)Nc2cccc(-c3nncn3C(C)C)n2)cc1-n1cnc(C2CC2)c1
[2]
  % of control: 77%

## Cc1cc(C)cc([C@H]2c3cc(C)ccc3NC(=O)CN2C(=O)c2ccc(Br)s2)c1
[3]; at 1 µM
  % of activity: 98%
[3]; at 10 µM
  % of activity: 102%

## COc1cc(Nc2nc(C)cc(-c3cnn4nc(OC)ccc34)n2)cc(C(F)(F)F)c1
[4]
  % of control: 95%
[5]
  % of control: 86%

## N#Cc1cccc(-c2c[nH]c3ncnc(N4CCOCC4)c23)c1
[6]
  % of control: 94%

## CNC(=O)Nc1ccc(-c2nc(N3CC4CCC(C3)O4)c3cnn(C4CCC5(CC4)OCCO5)c3n2)cc1
[7]
  % of control: 14%

## CC[C@@H]1[C@H](F)C(=O)N[C@@H]1COc1nccc2cc(C(N)=O)c(OC)cc12 [ZIMLOVISERTIB]
[8]
  % of inhibition: -26.4%
[9]
  % of inhibition: 94.3%

## CCC(=O)N1CCN(c2ccc(-n3c(=O)ccc4cnc5ccc(-c6cnc7ccccc7c6)cc5c43)cc2C(F)(F)F)CC1
[10]
  % of control: 74%

## CN(C)C/C=C/C(=O)Nc1ccc(C(=O)N2CCCC(Nc3ncc(Cl)c(-c4c[nH]c5ccccc45)n3)C2)cc1 (configuration not stated)
[11]
  % of control: 99%
